Measured values as given in article PMC7732128, “Regulation of gene transcription by thyroid hormone receptor β agonists in clinical development for the treatment of non-alcoholic steatohepatitis (NASH)” (PLoS ONE, 2020).

Tests used:
[1] = parameters: method as in doi:10.1016/s0735-1097(16)31933-7; conditions: 14-day treatment, ≥ 5 mg; cited from earlier work
[2] = biological target: T1, THRα (in complex with RXR) (Homo sapiens, UniProt P10827); experiment: Luciferase reporter assay in HEK293T cells, THRα; type: cell-based; conditions: read-out: THRα EC50 Mean ± SEM
T1 construct: expressed in transfected cells; host or cells: HEK293T
T1 sequence (P10827 1-410 isoform P10827-2): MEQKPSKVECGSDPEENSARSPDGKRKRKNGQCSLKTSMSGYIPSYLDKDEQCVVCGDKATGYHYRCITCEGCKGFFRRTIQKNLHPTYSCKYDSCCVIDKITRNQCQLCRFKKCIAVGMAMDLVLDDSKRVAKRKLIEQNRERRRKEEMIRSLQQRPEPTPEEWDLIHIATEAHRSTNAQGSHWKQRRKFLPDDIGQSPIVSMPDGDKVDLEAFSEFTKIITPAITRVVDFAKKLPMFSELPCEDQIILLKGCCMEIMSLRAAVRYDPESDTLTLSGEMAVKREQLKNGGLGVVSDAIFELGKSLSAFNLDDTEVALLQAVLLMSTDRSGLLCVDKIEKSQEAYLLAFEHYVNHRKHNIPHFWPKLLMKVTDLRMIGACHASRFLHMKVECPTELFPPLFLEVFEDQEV
T1 sequence (P19793 1-462 partner): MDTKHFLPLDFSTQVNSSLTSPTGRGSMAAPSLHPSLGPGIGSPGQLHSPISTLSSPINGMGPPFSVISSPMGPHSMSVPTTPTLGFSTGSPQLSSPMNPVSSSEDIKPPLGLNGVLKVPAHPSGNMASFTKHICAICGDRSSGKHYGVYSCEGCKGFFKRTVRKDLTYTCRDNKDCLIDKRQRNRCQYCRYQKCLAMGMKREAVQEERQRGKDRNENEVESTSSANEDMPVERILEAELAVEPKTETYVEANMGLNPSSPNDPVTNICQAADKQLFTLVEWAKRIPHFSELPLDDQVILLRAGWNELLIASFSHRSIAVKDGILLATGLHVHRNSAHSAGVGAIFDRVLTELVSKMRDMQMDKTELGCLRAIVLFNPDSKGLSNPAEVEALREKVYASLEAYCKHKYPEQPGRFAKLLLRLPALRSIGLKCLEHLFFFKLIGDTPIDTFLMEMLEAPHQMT
Procedure: After initial characterization of in vitro THR-binding/activation, compounds were tested for their ability to bind and activate THRα or β (in complex with RXR), inducing gene expression, in cultured human-derived cells. To this end, HEK293T cells were transiently transfected with a firefly luciferase reporter under control of a TRE (TRE-Luc), a RXR expression plasmid, and either a THRα or β expression plasmid. This assay was performed at Pharmaron Beijing Co., Ltd. (China).
Cells were seeded into 6-well culture plates at 7.0 x 10^5 cells/well and cultured in Dulbecco’s Modified Eagle’s Medium (DMEM; Hyclone, SH30022) supplemented with 10% fetal bovine serum (FBS; Gibco, 16000–044) and 1% Penicillin-Streptomycin (P/S; Corning, 30-002-CI) at 37°C and 5% CO2. […] After overnight incubation, the transfected cells were re-seeded at 1.0 x 10^4 cells/well into 384-well microplates and incubated for an additional 5 to 6 hrs. Test compounds were serially diluted in DMSO and added to the cells (0.1% final DMSO concentration). After approximately 18 to 24 hrs, the culture plates were equilibrated to RT, 30 μL ONE-Glo reagent (Promega, E6120) was added to each well, and luminescence was measured on an EnSpire plate reader (Perkin Elmer). The results were then quantified by calculating percent agonism and dose-response curves were fitted by non-linear regression with variable slope. […]

cholesterol-fed rat = system: cholesterol-fed rat; parameters: method as in PMID 18975928; conditions: cited from earlier work
healthy volunteers = conditions: two weeks, ≥ 80 mg; cited from earlier work
[3] = system: hepatic OATP1B1/B3 transporters; parameters: method as in PMID 19785645; conditions: cited from earlier work
THRβ over THRα = conditions: from ligand-binding affinities (Kd or Ki); cited from earlier work

Structure (SMILES) | reduction in LDL-C [1] | EC50 [2] | reduction in total cholesterol (cholesterol-fed rat; single dose 0.5 mg/kg) | decrease in total cholesterol (cholesterol-fed rat; single dose 3.0 mg/kg) | reduction in LDL-C (healthy volunteers) | reduction in total cholesterol (healthy volunteers) | transporter substrate [3] | selectivity for THRβ over THRα (THRβ over THRα)
Cc1cc(OCP2(=O)OCC[C@@H](c3cccc(Cl)c3)O2)cc(C)c1Cc1ccc(O)c(C(C)C)c1 (stereo partly drawn) [VK2809] | up to 41.2% | 54.8 ± 11.7 nM | 36% | ≤ 55% |  |  |  | 
CC(C)c1cc(Oc2c(Cl)cc(-n3nc(C#N)c(=O)[nH]c3=O)cc2Cl)n[nH]c1=O [MGL-3196, 2-[3,5-dichloro-4-(5-isopropyl-6-oxo-1,6-dihydropyridazin-3-yloxy)phenyl]-3,5-dioxo-2,3,4,5-tetrahydro[1,2,4]triazine-6-carbonitrile] |  |  |  |  | 21.8–30.3% | 16.0–22.8% | substrate | 
Cc1cc(OCP(=O)(O)O)cc(C)c1Cc1ccc(O)c(C(C)C)c1 [VK2809A] |  | 297 ± 41.4 nM |  |  |  |  |  | 15.8 fold
